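Assay format: 96-well plates, 48-hour exposure. At the GI50, growth is halved. TGI denotes the concentration required for complete inhibition of growth.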
How the values were obtained:
Assay in all cases: DTP human tumour cell line panel, 48 h
EKVX NSCLC = test system: EKVX NSCLC
HCT-15 colon = test system: HCT-15 colon
M14 melanoma = test system: M14 melanoma
MDA-MB-231 breast = test system: MDA-MB-231 breast
NCI-H226 lung = test system: NCI-H226 lung
NCI-H460 lung = test system: NCI-H460 lung
NCI/ADR-RES ovarian = test system: NCI/ADR-RES ovarian
SR leukemia = test system: SR leukemia
T-47D breast = test system: T-47D breast
A498 renal = test system: A498 renal

Compound | TGI (EKVX NSCLC) | TGI (HCT-15 colon) | TGI (M14 melanoma) | TGI (MDA-MB-231 breast) | TGI (NCI-H226 lung) | TGI (NCI-H460 lung) | TGI (NCI/ADR-RES ovarian) | TGI (SR leukemia) | TGI (T-47D breast) | TGI (A498 renal) | GI50 (A498 renal) | GI50 (EKVX NSCLC) | GI50 (HCT-15 colon) | GI50 (M14 melanoma) | GI50 (MDA-MB-231 breast) | GI50 (NCI-H226 lung) | GI50 (NCI-H460 lung) | GI50 (NCI/ADR-RES ovarian) | GI50 (SR leukemia) | GI50 (T-47D breast)
C[C@@H]1S[C@H](c2ccccc2F)N2Cc3ccccc3N=C12 | 95.9 µM | > 100 µM | 48.7 µM | > 100 µM | > 100 µM | > 100 µM | 99.3 µM | 36.9 µM | 91.4 µM | – | – | – | – | – | – | – | – | – | – | –
CCOC(CNCCC(=O)OC)OCC | > 10 µM | > 10 µM | > 10 µM | > 10 µM | > 10 µM | > 10 µM | > 10 µM | > 10 µM | > 10 µM | > 10 µM | – | – | – | – | – | – | – | – | – | –
CCc1c[n+]([O-])c(C)cc1[N+](=O)[O-] | > 100 µM | 40.1 µM | > 100 µM | 80.7 µM | – | 63.5 µM | > 100 µM | > 100 µM | > 100 µM | > 100 µM | – | – | – | – | – | – | – | – | – | –
COc1cc2nc(-c3cccs3)oc(=O)c2cc1OC | > 100 µM | > 100 µM | > 100 µM | > 100 µM | > 100 µM | > 100 µM | > 100 µM | > 100 µM | > 100 µM | > 100 µM | – | – | – | – | – | – | – | – | – | –
COc1cc2cc(Oc3ccc(NC(=O)c4cc(C(F)(F)F)cc(C(F)(F)F)c4)cc3)c(C)nc2cc1OC | > 50 µM | > 50 µM | > 50 µM | > 50 µM | > 50 µM | > 50 µM | > 50 µM | > 50 µM | > 50 µM | > 50 µM | 1.13 µM | 2.04 µM | 2.75 µM | 3.23 µM | 2.55 µM | 6.2 µM | 2.16 µM | 2.61 µM | 4.8 µM | 2.24 µM
COC(=O)CN1c2nc(C#N)c(C#N)nc2N(CC(=O)OC)c2nc(C#N)c(C#N)nc21 | > 51.3 µM | > 36 µM | 5.31 µM | > 52.9 µM | > 100 µM | > 71 µM | > 100 µM | 6.66 µM | 8.6 µM | > 52 µM | – | – | – | – | – | – | – | – | – | –
COC(=O)CCc1cc(OC)c2c(c1)[C@H](C(=O)OC)[C@@H](c1ccc(O)c(OC)c1)O2 | > 100 µM | > 100 µM | > 100 µM | > 100 µM | > 100 µM | > 100 µM | > 100 µM | 19.1 µM | > 100 µM | 74.5 µM | – | – | – | – | – | – | – | – | – | –
S=c1[nH]c2ccc(Br)cc2c(=S)s1 | 91.3 µM | > 100 µM | 95.3 µM | 63.7 µM | > 100 µM | 62.4 µM | > 100 µM | > 100 µM | 73.9 µM | – | – | – | – | – | – | – | – | – | – | –
CCOC(=O)c1nc2ccc(C(F)(F)F)cc2nc1Oc1ccc(C#N)cc1 | 30.2 µM | > 100 µM | 42.9 µM | 27.9 µM | 34.8 µM | > 100 µM | 48.9 µM | > 100 µM | > 100 µM | 57.1 µM | – | – | – | – | – | – | – | – | – | –
NNC1=N/C(=C\c2ccco2)C(Cl)=N1 | > 100 µM | > 100 µM | > 100 µM | > 100 µM | > 100 µM | – | > 100 µM | 72.1 µM | > 100 µM | > 100 µM | – | – | – | – | – | – | – | – | – | –
CCCCNC(=S)N/N=C/c1cccc(C)n1 | > 100 µM | > 100 µM | 48.6 µM | > 100 µM | 62.2 µM | > 100 µM | > 100 µM | > 100 µM | > 100 µM | > 100 µM | – | – | – | – | – | – | – | – | – | –
COC(C)(C)[C@@H](O)[C@H]1C[C@H](C)[C@@]2(CC[C@]3(C)[C@@H]2CC[C@@H]2[C@@]4(C)CC[C@@H](OC(C)=O)C(C)(C)[C@@H]4C[C@@H](OC4OC(COC(C)=O)C(O)C(O)C4O)[C@]23C)O1 (stereo partly specified) | 19.5 µM | 5.75 µM | 16.5 µM | 24.9 µM | 17.5 µM | 15.6 µM | 22.5 µM | 5.25 µM | 15.1 µM | 14.4 µM | – | – | – | – | – | – | – | – | – | –
O=C1NCC(NC(=O)C(F)(F)F)c2c(Br)sc(Br)c21 (stereo unspecified) | > 100 µM | > 100 µM | > 100 µM | > 100 µM | > 100 µM | > 100 µM | > 100 µM | > 100 µM | > 100 µM | > 100 µM | – | – | – | – | – | – | – | – | – | –
CNc1ncnc2c1cnn2COCC(O)CO (stereo unspecified) | > 100 µM | > 100 µM | > 100 µM | > 100 µM | > 100 µM | > 100 µM | > 100 µM | > 100 µM | > 100 µM | > 100 µM | – | – | – | – | – | – | – | – | – | –
O=C(NCCCN(CCCCN(CCCNC(=O)C(F)(F)F)Cc1ccc2ccccc2c1)Cc1ccc2ccccc2c1)C(F)(F)F | > 100 µM | > 100 µM | 4.54 µM | > 100 µM | > 100 µM | 23.7 µM | > 100 µM | 7.18 µM | > 100 µM | > 100 µM | – | – | – | – | – | – | – | – | – | –

From PubChem BioAssay (NCI)
